The supplement of paper PMC10307832

Legend:
Assay in all cases: relative viability (nuclei count vs DMSO), 5 days (fraction); higher = more cells survive
[1] = compound: COc1cc2ncn(-c3cc(OCc4ccccc4C(F)(F)F)c(C(N)=O)s3)c2cc1OC
Summary of the method: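 Vehicle-anchored 1536-well plates of lung cancer cell lines, held overnight at 37 °C, were pinned with five library-drug doses (not always all listed) spaced by √10. No medium change followed over the next 5 days, after which the cells were fixed, permeabilised and Hoechst-stained together and imaged at 4×. Nuclei were counted with MetaXpress, and viability is treated-well nuclei over vehicle-well nuclei, taken as a median across plates. Plates passed with control CV below 25% and at least one doubling.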

[2] = compound: COc1cc2ncn(-c3cc(OCc4ccccc4C(F)(F)F)c(C(N)=O)s3)c2cc1OC + Cc1cc(Nc2cc(N3CCN(C)CC3)nc(Sc3ccc(NC(=O)C4CC4)cc3)n2)n[nH]1 [Tozasertib] (partner 0.1 µM)
Summary of the method: (§1)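 Relative viability equals treated-well nuclei counts divided by vehicle-well nuclei counts. Counts came from 4× images of lung cancer cell lines grown in 1536-well plates for 5 days after pin-tool dosing on the day after seeding. Dosing used one drug alone or a fixed anchor-drug dose plus five library-drug doses (not always all listed) in √10 steps, and values are medians of duplicate plates.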

[3] = compound: COc1cc2ncn(-c3cc(OCc4ccccc4C(F)(F)F)c(C(N)=O)s3)c2cc1OC + Nc1nc2[nH]cc(CCc3ccc(C(=O)N[C@@H](CCC(=O)O)C(=O)O)cc3)c2c(=O)[nH]1 [Pemetrexed] (partner 0.2 µM)
Summary of the method: as §1

[4] = compound: COc1cc2ncn(-c3cc(OCc4ccccc4C(F)(F)F)c(C(N)=O)s3)c2cc1OC + CC(=O)c1c(C)c2cnc(Nc3ccc(N4CCNCC4)cn3)nc2n(C2CCCC2)c1=O [Palbociclib] (partner 0.5 µM)
Summary of the method: as §1

[5] = compound: COc1cc2ncn(-c3cc(OCc4ccccc4C(F)(F)F)c(C(N)=O)s3)c2cc1OC + Cc1nc(Nc2ncc(C(=O)Nc3c(C)cccc3Cl)s2)cc(N2CCN(CCO)CC2)n1 [Dasatinib] (partner 0.075 µM)
Summary of the method: as §1

[6] = compound: COc1cc2ncn(-c3cc(OCc4ccccc4C(F)(F)F)c(C(N)=O)s3)c2cc1OC + O=C(c1cc(Cc2n[nH]c(=O)c3ccccc23)ccc1F)N1CCN(C(=O)C2CC2)CC1 [Olaparib] (partner 8 µM)
Summary of the method: as §1

[7] = compound: COc1cc2ncn(-c3cc(OCc4ccccc4C(F)(F)F)c(C(N)=O)s3)c2cc1OC + CCNC(=O)c1noc(-c2cc(C(C)C)c(O)cc2O)c1-c1ccc(CN2CCOCC2)cc1 [Luminespib] (partner 0.01 µM)
Summary of the method: as §1

[8] = compound: COc1cc2ncn(-c3cc(OCc4ccccc4C(F)(F)F)c(C(N)=O)s3)c2cc1OC + Nc1ncn([C@H]2C[C@H](O)[C@@H](CO)O2)c(=O)n1 [Decitabine] (partner 2 µM)
Summary of the method: as §1

[9] = compound: COc1cc2ncn(-c3cc(OCc4ccccc4C(F)(F)F)c(C(N)=O)s3)c2cc1OC + COc1cccc2cc(-c3nc([C@H]4CC[C@H](C(=O)O)CC4)n4ncnc(N)c34)[nH]c12 [OSI-027] (partner 0.5 µM)
Summary of the method: as §1

[10] = compound: COc1cc2ncn(-c3cc(OCc4ccccc4C(F)(F)F)c(C(N)=O)s3)c2cc1OC + N=C(N)NC(=N)NCCc1ccccc1 [Phenformin] (partner 250 µM)
Summary of the method: as §1

[11] = compound: COc1cc2ncn(-c3cc(OCc4ccccc4C(F)(F)F)c(C(N)=O)s3)c2cc1OC + NC(=O)Nc1cc(-c2cccc(F)c2)sc1C(=O)N[C@H]1CCCNC1 [AZD7762] (partner 0.2 µM)
Summary of the method: as §1

[12] = compound: COc1cc2ncn(-c3cc(OCc4ccccc4C(F)(F)F)c(C(N)=O)s3)c2cc1OC + O=C(CCCCCCC(=O)Nc1ccccc1)NO [Vorinostat] (partner 1 µM)
Summary of the method: as §1

[13] = compound: COc1cc2ncn(-c3cc(OCc4ccccc4C(F)(F)F)c(C(N)=O)s3)c2cc1OC + CC(=O)Nc1cccc(-n2c(=O)n(C3CC3)c(=O)c3c(Nc4ccc(I)cc4F)n(C)c(=O)c(C)c32)c1 [Trametinib] (partner 0.02 µM)
Summary of the method: as §1

[14] = compound: COc1cc2ncn(-c3cc(OCc4ccccc4C(F)(F)F)c(C(N)=O)s3)c2cc1OC + COc1cc2c(Oc3ccc(NC(=O)C4(C(=O)Nc5ccc(F)cc5)CC4)cc3F)ccnc2cc1OCCCN1CCOCC1 [Foretinib] (partner 0.25 µM)
Summary of the method: as §1

## NCI-H522
[1]; 0.05 µM
  relative viability: 1.02
[1]; 0.1581 µM
  relative viability: 0.91
[1]; 0.5 µM
  relative viability: 0.935
[1]; 1.581 µM
  relative viability: 0.561
[1]; 5 µM
  relative viability: 0.308
[2]; first compound 0.05 µM
  relative viability: 0.481
[2]; first compound 0.1581 µM
  relative viability: 0.549
[2]; first compound 0.5 µM
  relative viability: 0.58
[2]; first compound 1.581 µM
  relative viability: 0.536
[2]; first compound 5 µM
  relative viability: 0.454
[3]; first compound 0.05 µM
  relative viability: 0.965
[3]; first compound 0.1581 µM
  relative viability: 0.842
[3]; first compound 0.5 µM
  relative viability: 0.742
[3]; first compound 1.581 µM
  relative viability: 0.812
[3]; first compound 5 µM
  relative viability: 0.377
[4]; first compound 0.05 µM
  relative viability: 0.886
[4]; first compound 0.1581 µM
  relative viability: 0.866
[4]; first compound 0.5 µM
  relative viability: 0.842
[4]; first compound 1.581 µM
  relative viability: 1.01
[4]; first compound 5 µM
  relative viability: 0.401
[5]; first compound 0.05 µM
  relative viability: 0.937
[5]; first compound 0.1581 µM
  relative viability: 0.846
[5]; first compound 0.5 µM
  relative viability: 0.814
[5]; first compound 1.581 µM
  relative viability: 0.628
[5]; first compound 5 µM
  relative viability: 0.369
[6]; first compound 0.05 µM
  relative viability: 0.51
[6]; first compound 0.1581 µM
  relative viability: 0.714
[6]; first compound 0.5 µM
  relative viability: 0.621
[6]; first compound 1.581 µM
  relative viability: 0.517
[6]; first compound 5 µM
  relative viability: 0.337
[7]; first compound 0.05 µM
  relative viability: 1.1
[7]; first compound 0.1581 µM
  relative viability: 0.899
[7]; first compound 0.5 µM
  relative viability: 1.16
[7]; first compound 1.581 µM
  relative viability: 0.787
[7]; first compound 5 µM
  relative viability: 0.737
[8]; first compound 0.05 µM
  relative viability: 0.574
[8]; first compound 0.1581 µM
  relative viability: 0.628
[8]; first compound 0.5 µM
  relative viability: 0.54
[8]; first compound 1.581 µM
  relative viability: 0.618
[8]; first compound 5 µM
  relative viability: 0.36
[9]; first compound 0.05 µM
  relative viability: 0.692
[9]; first compound 0.1581 µM
  relative viability: 0.757
[9]; first compound 0.5 µM
  relative viability: 0.621
[9]; first compound 1.581 µM
  relative viability: 0.444
[9]; first compound 5 µM
  relative viability: 0.415
[10]; first compound 0.05 µM
  relative viability: 0.741
[10]; first compound 0.1581 µM
  relative viability: 0.581
[10]; first compound 0.5 µM
  relative viability: 0.612
[10]; first compound 1.581 µM
  relative viability: 0.484
[10]; first compound 5 µM
  relative viability: 0.404
[11]; first compound 0.05 µM
  relative viability: 1.01
[11]; first compound 0.1581 µM
  relative viability: 0.769
[11]; first compound 0.5 µM
  relative viability: 0.766
[11]; first compound 1.581 µM
  relative viability: 0.461
[11]; first compound 5 µM
  relative viability: 0.417
[12]; first compound 0.05 µM
  relative viability: 0.962
[12]; first compound 0.1581 µM
  relative viability: 1.1
[12]; first compound 0.5 µM
  relative viability: 0.733
[12]; first compound 1.581 µM
  relative viability: 0.292
[12]; first compound 5 µM
  relative viability: 0.237
[13]; first compound 0.05 µM
  relative viability: 0.654
[13]; first compound 0.1581 µM
  relative viability: 0.748
[13]; first compound 0.5 µM
  relative viability: 0.657
[13]; first compound 1.581 µM
  relative viability: 0.673
[13]; first compound 5 µM
  relative viability: 0.335

## NCI-H1623
[1]; 0.05 µM
  relative viability: 0.962
[1]; 0.1581 µM
  relative viability: 0.975
[1]; 0.5 µM
  relative viability: 0.694
[1]; 1.581 µM
  relative viability: 0.439
[1]; 5 µM
  relative viability: 0.758
[2]; first compound 0.05 µM
  relative viability: 0.438
[2]; first compound 0.1581 µM
  relative viability: 0.382
[2]; first compound 0.5 µM
  relative viability: 0.386
[2]; first compound 5 µM
  relative viability: 0.399
[14]; first compound 0.05 µM
  relative viability: 0.824
[14]; first compound 0.1581 µM
  relative viability: 0.723
[14]; first compound 0.5 µM
  relative viability: 0.62
[14]; first compound 1.581 µM
  relative viability: 0.426
[14]; first compound 5 µM
  relative viability: 0.694
[5]; first compound 0.05 µM
  relative viability: 0.525
[5]; first compound 0.1581 µM
  relative viability: 0.447
[5]; first compound 0.5 µM
  relative viability: 0.508
[5]; first compound 5 µM
  relative viability: 0.557
[7]; first compound 0.05 µM
  relative viability: 0.49
[7]; first compound 0.1581 µM
  relative viability: 0.485
[7]; first compound 0.5 µM
  relative viability: 0.435
[7]; first compound 5 µM
  relative viability: 0.37
[9]; first compound 0.05 µM
  relative viability: 0.478
[9]; first compound 0.1581 µM
  relative viability: 0.429
[9]; first compound 0.5 µM
  relative viability: 0.376
[9]; first compound 1.581 µM
  relative viability: 0.281
[9]; first compound 5 µM
  relative viability: 0.349
[10]; first compound 0.05 µM
  relative viability: 0.588
[10]; first compound 0.1581 µM
  relative viability: 0.395
[10]; first compound 0.5 µM
  relative viability: 0.463
[10]; first compound 5 µM
  relative viability: 0.576
